# Test system: HCV replicon
# Test: HCV Replicon Assay (luciferase, 5-2 Luc replicon cells)
# Assay type: cell-based
# Conditions: 5-2 Luc replicon cells (Huh7), 24-48 hours with compound, luciferase counts
# Method: Actively dividing 5-2 Luc replicon cells were seeded at the density of 5000-7500 cells/well in the volume of 90 μl/well into 96 well plate(s). The cells were then incubated at 37° C. and 5% CO2 for 24 hours. The 5-2 cells are replicon cells licensed from Ralf Bartenschlager (Germany) and have a self-replicating RNA molecule in the Huh7 cell; the RNA contains HCV non-structural proteins that make the self-replication possible.
# Various concentrations of compounds (in the volume of 10 μl) were added into each well 24 hours after seeding the cells. The cells were incubated for another 24-48 hours before luciferase assay.
# After incubating the 5-2 Luc replicon cells with the compounds for 24-48 hours, media were aspirated from each well and Bright-Glo (Promega) luciferase assay reagents were added to each well according to the manufacturer′s manual. Briefly, the Bright-Glo reagent was diluted with equal volume of PBS and an aliquote (100 μl) was added to each well. After incubating the plate at room temperature for 5 minutes, luciferase counts were taken using a luminometer.
row,SMILES,Activity (concentration of inhibitory activity)
1,Cc1cc2cc(NC(=O)C3CCC(=O)C3)ccc2n1C(=O)c1c(Cl)cccc1Cl (stereo not drawn) [Compound 16a-14],a (“a” indicates inhibitory activity at a concentration of less than 10 micromolar)
2,"COc1cccc(OC)c1C(=O)n1c(C)cc2cc(NC(=O)C3CC3)ccc21 [Compound 16b4, 5-Cyclopropanecarbonylamino-1-(2′,6′-dimethoxybenzoyl)-2-methylindole]",a (“a” indicates inhibitory activity at a concentration of less than 10 micromolar)
3,"COc1cccc(OC)c1C(=O)n1c(C)cc2cc(NC(=O)C3CCCC3)ccc21 [Compound 16b-1, 5-Cyclopentanecarbonylamino-1-(2′,6′-dimethoxybenzoyl)-2-methylindole]",a (“a” indicates inhibitory activity at a concentration of less than 10 micromolar)
4,"COc1cccc(OC)c1C(=O)n1c(C)cc2cc(NC(=O)C3CCCCC3)ccc21 [Compound 16b-2, 5-Cyclohexanecarbonylamino-1 (2′,6′-dimethoxybenzoyl)-2-methylindole]",a (“a” indicates inhibitory activity at a concentration of less than 10 micromolar)
5,"COc1cccc(OC)c1C(=O)n1c(C)cc2cc(NC(=O)C3CCC3)ccc21 [Compound 16b-3, 5-Cyclobutanecarbonylamino-1-(2′,6′-dimethoxybenzoyl)-2-methylindole]",a (“a” indicates inhibitory activity at a concentration of less than 10 micromolar)
6,"COc1cccc(OC)c1C(=O)n1c(C)cc2cc(NC(=O)c3cccnc3)ccc21 [Compound 16b-5, 1-(2′,6′-Dimethoxybenzoyl)-5-(3-pyridylcarbonyl)amino-2-methylindole]",a (“a” indicates inhibitory activity at a concentration of less than 10 micromolar)
7,"COc1cccc(OC)c1C(=O)n1c(C)cc2cc(NC(=O)C3CCC(=O)C3)ccc21 (stereo not drawn) [Compound 16b-6, 1-(2′,6′-Dimethoxybenzoyl)-5-(3-oxo-1-cyclopentanecarbonyl)amino-2-methylindole]",a (“a” indicates inhibitory activity at a concentration of less than 10 micromolar)
8,"Cc1cc2cc(NC(=O)C3CCCC3)ccc2n1C(=O)c1c(F)cccc1C(F)(F)F [Compound 16c-1, 5-Cyclopentanecarbonylamino-1-(2′-fluoro-6′-trifluoromethylbenzoyl)-2-methylindole]",a (“a” indicates inhibitory activity at a concentration of less than 10 micromolar)
9,"Cc1cc2cc(NC(=O)C3CCCCC3)ccc2n1C(=O)c1c(F)cccc1C(F)(F)F [Compound 16c-2, 5-Cyclohexanecarbonylamino-1-(2′-fluoro-6′-trifluoromethylbenzoyl)-2-methylindole]",a (“a” indicates inhibitory activity at a concentration of less than 10 micromolar)
10,"Cc1cc2cc(NC(=O)C3CCC3)ccc2n1C(=O)c1c(F)cccc1C(F)(F)F [Compound 16c-3, 5-Cyclobutanecarbonylamino-1-(2′-fluoro-6′-trifluoromethylbenzoyl)-2-methylindole]",a (“a” indicates inhibitory activity at a concentration of less than 10 micromolar)
11,"Cc1cc2cc(NC(=O)C3CC3)ccc2n1C(=O)c1c(F)cccc1C(F)(F)F [Compound 16c-4, 5-Cyclopropanecarbonylamino-1-(2′fluoro-6′-trifluoromethylbenzoyl)-2-methylindole]",a (“a” indicates inhibitory activity at a concentration of less than 10 micromolar)
12,"Cc1cc2cc(NC(=O)C3CCC(=O)C3)ccc2n1C(=O)c1c(F)cccc1C(F)(F)F (stereo not drawn) [Compound 16c-5, 1-(2′-Fluoro-6′-trifluoromethylbenzoyl)-5-(3-oxo-1-cyclopentanecarbonyl)amino-2-methylindole]",a (“a” indicates inhibitory activity at a concentration of less than 10 micromolar)
13,"Cc1cc2cc(NC(=O)C3CCCC3)ccc2n1C(=O)c1c(F)cccc1F [Compound 16d-1, 5-Cyclopentanecarbonylamino-1-(2′,6′-difluorobenzoyl)-2-methylindole]",b (“b” indicates activity is at a concentration greater than 10 micromolar)
14,"Cc1cc2cc(NC(=O)C3CCC3)ccc2n1C(=O)c1c(F)cccc1F [Compound 16d-2, 5-Cyclobutanecarbonylamino-1-(2′,6′-difluorobenzoyl)-2-methylindole]",b (“b” indicates activity is at a concentration greater than 10 micromolar)
15,"Cc1cc2cc(NC(=O)C3CC3)ccc2n1C(=O)c1c(F)cccc1F [Compound 16d-3, 5-Cyclopropanecarbonylamino-1-(2′,6′-difluorobenzoyl)-2-methylindole]",b (“b” indicates activity is at a concentration greater than 10 micromolar)
16,"Cc1cc2cc(NC(=O)C3CCCC3)ccc2n1C(=O)c1c(F)cccc1Cl [Compound 16e-1, 1-(2′-Chloro-6′-fluorobenzoyl)-5-cyclopentanecarbonylamino-2-methylindole]",a (“a” indicates inhibitory activity at a concentration of less than 10 micromolar)
17,"Cc1cc2cc(NC(=O)C3CCCCC3)ccc2n1C(=O)c1c(F)cccc1Cl [Compound 16e-2, 1-(2′-Chloro-6′-fluorobenzoyl)-5-Cyclohexanecarbonylamino-2-methylindole]",a (“a” indicates inhibitory activity at a concentration of less than 10 micromolar)
18,"Cc1cc2cc(NC(=O)C3CCC3)ccc2n1C(=O)c1c(F)cccc1Cl [Compound 16e-3, 1-(2′-Chloro-6′-fluorobenzoyl)-5-cyclobutanecarbonylamino-2-methylindole]",a (“a” indicates inhibitory activity at a concentration of less than 10 micromolar)
19,"Cc1cc2cc(NC(=O)C3CC3)ccc2n1C(=O)c1c(F)cccc1Cl [Compound 16e-4, 1-(2′-Chloro-6′-fluorobenzoyl)-5-cyclopropanecarbonylamino-2-methylindole]",a (“a” indicates inhibitory activity at a concentration of less than 10 micromolar)
20,"Cc1cc2cc(NC(=O)C3CCC(=O)C3)ccc2n1C(=O)c1c(F)cccc1Cl (stereo not drawn) [Compound 16e-5, 1-(2′-Chloro-6′-fluorobenzoyl)-5-(3-oxo-1-cyclopentanecarbonyl)amino-2-methylindole]",a (“a” indicates inhibitory activity at a concentration of less than 10 micromolar)
21,"Cc1cccc(C)c1C(=O)n1c(C)cc2cc(NC(=O)C3CCCC3)ccc21 [Compound 16f-1, 5-Cyclopentanecarbonylamino-1-(2′,6′-dimethylbenzoyl)-2-methylindole]",a (“a” indicates inhibitory activity at a concentration of less than 10 micromolar)
22,"Cc1cccc(C)c1C(=O)n1c(C)cc2cc(NC(=O)C3CCCCC3)ccc21 [Compound 16f-2, 5-Cyclohexanecarbonylamino-1-(2′,6′-dimethylbenzoyl)-2-methylindole]",a (“a” indicates inhibitory activity at a concentration of less than 10 micromolar)
23,"Cc1cccc(C)c1C(=O)n1c(C)cc2cc(NC(=O)C3CCC3)ccc21 [Compound 16f-3, 5-Cyclobutanecarbonylamino-1-(2′,6′-dimethylbenzoyl)-2-methylindole]",a (“a” indicates inhibitory activity at a concentration of less than 10 micromolar)
24,"Cc1cccc(C)c1C(=O)n1c(C)cc2cc(NC(=O)C3CC3)ccc21 [Compound 16f-4, 5-Cyclopropanecarbonylamino-1-(2′,6′-dimethylbenzoyl)-2-methylindole]",a (“a” indicates inhibitory activity at a concentration of less than 10 micromolar)
25,"Cc1cccc(C)c1C(=O)n1c(C)cc2cc(NC(=O)C3CCC(=O)C3)ccc21 (stereo not drawn) [Compound 16f-5, 1-(2′,6′-Dimethylbenzoyl)-5-(3-oxo-1-cyclopentanecarbonyl)amino-2-methylindole]",a (“a” indicates inhibitory activity at a concentration of less than 10 micromolar)
26,"Cc1cc2cc(NC(=O)C3CCCC3)ccc2n1C(=O)c1cc(Cl)nc(Cl)c1 [Compound 16g-1, 5-Cyclopentanecarbonylamino-l-(2′,6′-dichloro-4′-pyridylcarbonyl)-2-methylindole]",a (“a” indicates inhibitory activity at a concentration of less than 10 micromolar)
27,"Cc1cc2cc(NC(=O)C3CC3)ccc2n1C(=O)c1cc(Cl)nc(Cl)c1 [Compound 16g-2, 5-Cyclopropanecarbonylamino-1-(2′,6′-dichloro-4′-pyridylcarbonyl)-2-methylindole]",a (“a” indicates inhibitory activity at a concentration of less than 10 micromolar)
28,"Cc1cc2cc(NC(=O)C3CCC(=O)C3)ccc2n1C(=O)c1cc(Cl)nc(Cl)c1 (stereo not drawn) [Compound 16g-3, 1-(2′,6′-Dichloro-4-pyridylcarbonyl)-5-(3-oxo-1-cyclopentanecarbonyl)amino-2-methylindole]",a (“a” indicates inhibitory activity at a concentration of less than 10 micromolar)
29,"Cc1cc2cc(NC(=O)C3CCCC3)ccc2n1C(=O)c1ccccc1Cl [Compound 18, 1-(2′-Chlorobenzoyl)-5-cyclopentanecarbonylamino-2-methylindole]",b (“b” indicates activity is at a concentration greater than 10 micromolar)
30,"COc1ccccc1C(=O)n1c(C)cc2cc(NC(=O)C3CCCC3)ccc21 [Compound 19, 1-(o-Anisoyl)-5-cyclopentanecarbonylamino-2-methylindole]",a (“a” indicates inhibitory activity at a concentration of less than 10 micromolar)
